{"source": "paper doi:10.1101/2024.09.05.611349v1", "about": "(biorxiv, 2024)"}
{"test_system": "not listed separately", "assay": "in vitro", "conditions": "mouse, liver microsomes", "units": {"microsomal CLint": "µL/min/mg"}}
{"smiles": "COc1ccc2c(c1)[C@]13CCCC[C@@H]1[C@H](C2)N(C)CC3", "note": "[Dextromethorphan]", "microsomal CLint": 179}
{"smiles": "O=C(O)Cc1ccccc1Nc1c(Cl)cccc1Cl", "note": "[Diclofenac]", "microsomal CLint": 121}
{"smiles": "COc1ccc2[nH]c([S+]([O-])Cc3ncc(C)c(OC)c3C)nc2c1", "note": "(centres unmarked) [Omeprazole]", "microsomal CLint": 143}
{"test_system": "S. aureus ATCC 29213", "assay": "microbe, parasite or virus in culture", "conditions": "Staphylococcus aureus, ATCC29213, read-out: MIC (µg/mL)", "units": {"MIC": "µg/mL"}}
{"smiles": "CCCCOc1ccc(C(=O)NNC(=S)NC(C)=O)cc1", "note": "[1a]", "MIC": 1.56}
{"smiles": "CCCCCCOc1ccc(C(=O)NNC(=S)NC(C)=O)cc1", "note": "[1c, N-(2-(4-(n-hexoxy)benzoyl)hydrazine-1-carbonothioyl)acetamide]", "MIC": 1.56}
{"smiles": "CCCCCCCCCCCOc1ccc(C(=O)NNC(=S)NC(C)=O)cc1", "note": "[1d]", "MIC": 100}
{"smiles": "CC(=O)NC(=S)NNC(=O)c1ccc(OCCCC(C)C)cc1", "note": "[1e]", "MIC": 3.12}
{"smiles": "COCCCOc1ccc(C(=O)NNC(=S)NC(C)=O)cc1", "note": "[1f]", "MIC": "> 100"}
{"smiles": "CCCCCOc1ccc(C(=O)NNC(=S)NC(C)=O)cc1OCCCCC", "note": "[1h]", "MIC": 6.25}
{"smiles": "CCCCCOc1ccc(C(=O)NNC(=S)NC(C)=O)cc1O", "note": "[1i]", "MIC": 25}
{"smiles": "CC(=O)NC(=S)NNC(=O)c1ccc(O)c(O)c1", "note": "[1j]", "MIC": 100}
{"smiles": "CCCCCOc1ccc(C(=O)NNC(=S)NC(C)=O)c(C)c1", "note": "[1k]", "MIC": 3.12}
{"smiles": "CC(=O)NC(=S)NNC(=O)c1ccc(OC2CCCCC2)cc1", "note": "[1m]", "MIC": 1.56}
{"smiles": "CC(=O)NC(=S)NNC(=O)c1ccc(Oc2ccccc2)cc1", "note": "[1n]", "MIC": 3.12}
{"smiles": "CCCCCOc1ccc(C(=O)NNC(=S)NC(C)=O)nc1", "note": "[1o]", "MIC": 25}
{"smiles": "CCCCCOc1ccc(CC(=O)NNC(=S)NC(C)=O)cc1", "note": "[1p]", "MIC": 25}
{"smiles": "CCCCCOc1ccc(CCC(=O)NNC(=S)NC(C)=O)cc1", "note": "[1q]", "MIC": "> 100"}
{"smiles": "CC(=O)NC(=S)NNC(=O)c1ccc(-c2ccccc2)cc1", "note": "[1r]", "MIC": 1.56}
{"smiles": "CC(=O)NC(=S)NNC(=O)c1cccc(-c2ccccc2)c1", "note": "[1s]", "MIC": 3.12}
{"smiles": "CC(=O)NC(=S)NNC(=O)c1ccc2ccccc2c1", "note": "[1t]", "MIC": 6.25}
{"smiles": "CC(=O)NC(=S)NNC(=O)c1ccc(C2CC2)cc1", "note": "[1u]", "MIC": 3.12}
{"smiles": "CC(=O)NC(=S)NNC(=O)c1ccc(C2CCCCC2)cc1", "note": "[1v, N-(2-(4-cyclohexylbenzoyl)hydrazine-1-carbonothioyl)acetamide]", "MIC": 0.39}
{"smiles": "CCC1CCC(c2ccc(C(=O)NNC(=S)NC(C)=O)cc2)CC1", "note": "(centres unmarked) [1w, N-(2-(4-(4-ethylcyclohexyl)benzoyl)hydrazine-1-carbonothioyl)acetamide]", "MIC": 0.2}
{"smiles": "CC(=O)NC(=S)NNC(=O)c1ccc(N2CCOCC2)cc1", "note": "[1x]", "MIC": 100}
{"smiles": "CCCOc1ccc(C(=O)NNC(=S)NC(C)=O)cc1", "note": "[B5]", "MIC": 6.25}
{"test_system": "not listed separately", "assay": "in vitro", "conditions": "mouse, plasma", "units": {"half-life": "min"}}
{"smiles": "CC(C)[N+](C)(CCOC(=O)C1c2ccccc2Oc2ccccc21)C(C)C", "note": "[Propantheline bromide]", "half-life": 38.3}
{"test_system": "not listed separately", "assay": "in vitro", "conditions": "mouse, liver microsomes", "remark": "another data set of the same source", "units": {"half-life": "min"}}
{"smiles": "COc1ccc2c(c1)[C@]13CCCC[C@@H]1[C@H](C2)N(C)CC3", "note": "[Dextromethorphan]", "half-life": 7.7}
{"smiles": "O=C(O)Cc1ccccc1Nc1c(Cl)cccc1Cl", "note": "[Diclofenac]", "half-life": 11.5}
{"smiles": "COc1ccc2[nH]c([S+]([O-])Cc3ncc(C)c(OC)c3C)nc2c1", "note": "(centres unmarked) [Omeprazole]", "half-life": 9.7}
